Assay results taken from article PMC8163982, “Partial agonism improves the anti-hyperglycaemic efficacy of an oxyntomodulin-derived GLP-1R/GCGR co-agonist” (Molecular Metabolism, 2021).
Where a SMILES comes first, the peptide text is derived from it. [ ]: non-standard residue; d: D form. Aib = CC(C)(N)C(=O)O

How the values were obtained:
[1] = Pharmacokinetic study in mice (plasma radioimmunoassay); type: in vivo, mouse; conditions: 0.5 mg/kg IP
Procedure: The mice were administered 0.5 mg/kg of peptide via IP injection. Four h after injection, blood was acquired by venesection into lithium heparin-coated microvette tubes (Sarstedt, Germany). In a separate study, male Sprague Dawley rats (average weight 250 g, obtained from Charles River) were administered 4 mg/kg of peptide SC mixed in aqueous ZnCl2 solution to a molar ratio of 0.7:1 (peptide:ZnCl2), and blood was collected by venesection at several time points up to 72 h. Plasma was separated by centrifugation at 10,000 g for 8 min at 4 °C. Plasma concentrations were assessed by radioimmunoassay using an in-house assay as previously described using standard curves generated from each SRB103 peptide to ensure that equivalent recovery was obtained.

GLP-1R = GLP-1R (Homo sapiens, UniProt P43220); experiment: NanoBiT mini-Gs recruitment to GLP-1R-SmBiT in HEK293T cells; type: cell-based; conditions: SRB103 pair, mean ± SEM, n = 6
GLP-1R, sequence (P43220 24-463): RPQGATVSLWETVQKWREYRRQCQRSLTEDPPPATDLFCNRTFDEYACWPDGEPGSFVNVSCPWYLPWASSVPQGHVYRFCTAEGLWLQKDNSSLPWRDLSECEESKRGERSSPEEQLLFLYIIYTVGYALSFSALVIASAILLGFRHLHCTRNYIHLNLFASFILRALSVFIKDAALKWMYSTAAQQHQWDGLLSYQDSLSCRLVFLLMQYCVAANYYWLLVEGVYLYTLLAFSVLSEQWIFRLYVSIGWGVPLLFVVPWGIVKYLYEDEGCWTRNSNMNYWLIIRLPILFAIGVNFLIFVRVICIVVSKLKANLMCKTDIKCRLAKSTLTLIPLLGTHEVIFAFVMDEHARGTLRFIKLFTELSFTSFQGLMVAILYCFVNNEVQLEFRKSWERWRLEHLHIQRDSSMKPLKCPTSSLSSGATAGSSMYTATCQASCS
Procedure: The assay was performed as previously described. […] (gifts from Professor Nevin Lambert, Medical College of Georgia) or 0.05 μg of GLP-1R-SmBiT and 0.05 μg of LgBiT-β-arrestin-2 (Promega) plus 0.9 μg of pcDNA3.1 for 24 h. The cells were detached with EDTA, resuspended in HBSS, and furimazine (Promega) was added at a 1:50 dilution from the manufacturer's pre-prepared stock. After dispensing into 96-well white plates, a baseline read of the luminescent signals was serially recorded for 5 min using a FlexStation 3 instrument at 37 °C before the indicated concentration of ligand was added, after which the signals were repeatedly recorded for 30 min. […] Bias was calculated using two approaches. First, the log max/EC50 method was used, with the ratio of Emax to EC50 from 3-parameter fits for each ligand used to quantify agonism. After log10 transformation, responses were expressed relative to the reference agonist on a per assay basis to obtain Δlog(Emax/EC50) for each pathway. Pathway-specific values were then expressed relative to each other to obtain ΔΔlog(Emax/EC50), that is, the log bias factor. Second, a method derived from kinetic curve fitting was used. Here, kinetic responses for a single maximal agonist concentration were normalised at each time point to the vehicle response prior to curve fitting. […]

SNAP-GLP-1R = target: T1, SNAP-GLP-1R (Homo sapiens, UniProt P43220); experiment: High content imaging assay for SNAP-GLP-1R internalisation; type: cell-based; conditions: high content analysis, mean ± SEM, n = 4, read-out: HCA assay (HEK293-SNAP-GLP-1R) pEC50 (converted)
T1 construct: expressed in transfected cells
T1 sequence (P43220 24-463): as above
Procedure: The assay was adapted from a previously described method. HEK293T cells were seeded in black clear-bottom plates coated with 0.1% poly-D-lysine and assayed 24 h after transfection with SNAP-tagged GLP-1R or GCGR plasmid DNA (0.1 μg per well). The cells were labelled with the cleavable SNAP-tag probe BG-S-S-549 (a gift from New England Biolabs) in complete medium for 30 min at room temperature. After washing, fresh serum-free medium ± agonist was added. At the end of incubation, the medium was removed and the wells were treated with for 5 min at 4 °C with Mesna (100 mM in alkaline TNE buffer at a pH of 8.6) to remove BG-S-S-549 bound to residual surface receptors without affecting the internalised receptor population or with alkaline TNE buffer alone. After washing, phase contrast and epifluorescence cellular imaging at 20× magnification was performed, followed by processing as previously described to quantify the amount of internalised receptor from the fluorescence intensity readings.

| SMILES | Plasma concentration 4 h after a single dose [1] | Emax (GLP-1R; HEK-293T, normalised to globally fitted maximum response) [%] | EC50 (GLP-1R; 3-parameter fit, read-out: GLP-1R mini-Gs (HEK293T) pEC50 (converted)) [nM] | EC50 (SNAP-GLP-1R) [nM] |
| --- | --- | --- | --- | --- |
| CC[C@H](C)[C@H](NC(=O)[C@H](Cc1ccccc1)NC(=O)[C@H](CCC(=O)O)NC(=O)[C@H](CCC(N)=O)NC(=O)[C@H](C)NC(=O)[C@H](CCCNC(=N)N)NC(=O)[C@H](CCCCN)NC(=O)[C@H](C)NC(=O)[C@H](CC(=O)O)NC(=O)[C@H](CC(C)C)NC(=O)[C@H](Cc1ccc(O)cc1)NC(=O)[C@H](CCCCN)NC(=O)[C@H](CO)NC(=O)[C@H](Cc1ccc(O)cc1)NC(=O)[C@H](CC(=O)O)NC(=O)[C@H](CO)NC(=O)[C@@H](NC(=O)[C@H](Cc1ccccc1)NC(=O)[C@@H](NC(=O)CNC(=O)[C@H](Cc1c[nH]cn1)NC(=O)C(C)(C)NC(=O)[C@@H](N)Cc1c[nH]cn1)[C@@H](C)O)[C@@H](C)O)C(=O)N[C@@H](CCC(=O)O)C(=O)N[C@@H](Cc1c[nH]c2ccccc12)C(=O)N[C@@H](CC(C)C)C(=O)N[C@@H](CC(C)C)C(=O)N[C@@H](C)C(=O)NCC(=O)N[C@@H](Cc1c[nH]cn1)C(=O)N[C@@H](Cc1c[nH]cn1)C(=O)N[C@@H](Cc1c[nH]cn1)C(=O)N[C@@H](Cc1c[nH]cn1)C(=O)N[C@@H](Cc1c[nH]cn1)C(=O)N1CCC[C@H]1C(=O)N[C@@H](CO)C(=O)N[C@@H](Cc1c[nH]c2ccccc12)C(=O)O [SRB103H] (H-H[Aib]HGTFTSDYSKYLDAKRAQEFIEWLLAGHHHHHPSW-OH) | the same | 103 ± 4 | 79.4 | 7.94 |
| CC[C@H](C)[C@H](NC(=O)[C@H](Cc1ccccc1)NC(=O)[C@H](CCC(=O)O)NC(=O)[C@H](CCC(N)=O)NC(=O)[C@H](C)NC(=O)[C@H](CCCNC(=N)N)NC(=O)[C@H](CCCCN)NC(=O)[C@H](C)NC(=O)[C@H](CC(=O)O)NC(=O)[C@H](CC(C)C)NC(=O)[C@H](Cc1ccc(O)cc1)NC(=O)[C@H](CCCCN)NC(=O)[C@H](CO)NC(=O)[C@H](Cc1ccc(O)cc1)NC(=O)[C@H](CC(=O)O)NC(=O)[C@H](CO)NC(=O)[C@@H](NC(=O)[C@H](Cc1ccccc1)NC(=O)[C@@H](NC(=O)CNC(=O)[C@H](CCC(N)=O)NC(=O)C(C)(C)NC(=O)[C@@H](N)Cc1c[nH]cn1)[C@@H](C)O)[C@@H](C)O)C(=O)N[C@@H](CCC(=O)O)C(=O)N[C@@H](Cc1c[nH]c2ccccc12)C(=O)N[C@@H](CC(C)C)C(=O)N[C@@H](CC(C)C)C(=O)N[C@@H](C)C(=O)NCC(=O)N[C@@H](Cc1c[nH]cn1)C(=O)N[C@@H](Cc1c[nH]cn1)C(=O)N[C@@H](Cc1c[nH]cn1)C(=O)N[C@@H](Cc1c[nH]cn1)C(=O)N[C@@H](Cc1c[nH]cn1)C(=O)N1CCC[C@H]1C(=O)N[C@@H](CO)C(=O)N[C@@H](Cc1c[nH]c2ccccc12)C(=O)O [SRB103Q] (H-H[Aib]QGTFTSDYSKYLDAKRAQEFIEWLLAGHHHHHPSW-OH) | – | – | – | 2.51 |
